Target: GSK 3α (Homo sapiens (Human), UniProt P49840)
Experiment: GSK 3α enzyme inhibition (FRET, Z-LYTE; Method 2)
Assay type: biochemical
Details: read-out: IC50 Values for Enzyme Inhibition GSK3α
Description: The enzyme inhibitory activities of compounds disclosed herein are determined by FRET using synthetic peptides labelled with both donor and acceptor fluorophores (Z-LYTE, Invitrogen Ltd., Paisley, UK).
The inhibitory activities of compounds of the invention against the GSK 3α enzyme isoform (Invitrogen), are evaluated by determining the level of activation I phosphorylation of the target peptide. The GSK3-α protein (500 ng/mL, 2.5 μL) is mixed with the test compound (2.5 μL at either 4 μg/mL, 0.4 μg/mL, 0.04 μg/mL, or 0.004 μg/mL) for 2 hr at RT. The FRET peptide (8 μM, 2.5 μL), which is a phosphorylation target for GSK3α, and ATP (40 μM, 2.5 μL) are then added to the enzyme\compound mixture and the resulting mixture incubated for 1 hr. Development reagent (protease, 5 μL) is added for 1 hr prior to detection in a fluorescence microplate reader (Varioskan® Flash, ThermoFisher Scientific).
In all cases, the site-specific protease cleaves non-phosphorylated peptide only and eliminates the FRET signal. Phosphorylation levels of each reaction are calculated using the ratio of coumarin emission (donor) over fluorescein emission (acceptor), for which high ratios indicate high phosphorylation and low ratios indicate low phosphorylation levels.
This method follows the same steps as Method 1 above, but utilises a shorter period of mixing of the test compound (105 minutes instead of 2 hours) with the GSK3-α protein. In addition, the concentrations of test compound employed are either 10 μg/mL, 1 μg/mL, 0.1 μg/mL, or 0.01 μg/mL

Chain of GSK 3α (P49840 whole entry): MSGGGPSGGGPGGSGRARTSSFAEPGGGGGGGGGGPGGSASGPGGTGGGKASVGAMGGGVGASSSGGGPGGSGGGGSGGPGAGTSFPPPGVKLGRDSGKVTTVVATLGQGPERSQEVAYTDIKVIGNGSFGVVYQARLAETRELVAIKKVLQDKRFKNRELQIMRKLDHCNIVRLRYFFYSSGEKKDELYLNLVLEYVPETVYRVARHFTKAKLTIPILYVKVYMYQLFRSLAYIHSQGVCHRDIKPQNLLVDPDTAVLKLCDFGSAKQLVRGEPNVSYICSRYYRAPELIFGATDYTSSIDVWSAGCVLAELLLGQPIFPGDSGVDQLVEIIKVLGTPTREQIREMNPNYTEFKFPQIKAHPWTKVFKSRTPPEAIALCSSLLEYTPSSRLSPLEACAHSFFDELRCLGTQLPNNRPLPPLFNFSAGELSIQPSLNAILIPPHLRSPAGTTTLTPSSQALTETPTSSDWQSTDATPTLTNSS

SMILES | IC50 [nM]
COCCOCCOCCOc1cc(Nc2cc(Oc3ccc(NC(=O)Nc4cc(C(C)(C)C)cc(C(=O)NCCN)c4OC)c4ccccc34)ccn2)cc(OC)c1 [83(g), N-(2-aminoethyl)-5-(tert-butyl)-2-methoxy-3-(3-(4-((2-((3-methoxy-5-(2-(2-(2-methoxy-ethoxy)ethoxy)ethoxy)phenyl)amino)pyridin-4-yl)oxy)naphthalen-1-yl)ureido)benzamide] | 2200
COCCOCCOCCOc1cc(Nc2nccc(Oc3ccc(NC(=O)Nc4cc(C(C)(C)C)cc(N)c4OC)c4ccccc34)n2)cc(OC)c1 [Example 25, 1-(3-Amino-5-(tert-butyl)-2-methoxyphenyl)-3-(4-((2-((3-methoxy-5-(2-(2-(2-methoxy-ethoxy)ethoxy)ethoxy)phenyl)amino)pyrimidin-4-yl)oxy)naphthalen-1-yl)urea] | 1890
COCCOCCOCCOc1cc(Nc2nccc(Oc3ccc(NC(=O)Nc4cc(C(C)(C)C)cc5nc(C)oc45)c4ccccc34)n2)cc(OC)c1 [Example 64, 1-(5-(tert-Butyl)-2-methylbenzo[d]oxazol-7-yl)-3-(4-((2-((3-methoxy-5-(2-(2-(2-methoxy-ethoxy)ethoxy)ethoxy)phenyl)amino)pyrimidin-4-yl)oxy)naphthalen-1-yl)urea] | 1460
COCCOCCOCCOc1cc(Nc2nccc(Oc3ccc(NC(=O)Nc4cc(C(C)(C)C)cc(C(=O)NC(C)C)c4OC)c4ccccc34)n2)cc(OC)c1 [Example 42, 5-(tert-Butyl)-N-isopropyl-2-methoxy-3-(3-(4-((2-((3-methoxy-5-(2-(2-(2-methoxyethoxy)-ethoxy)ethoxy)phenyl)amino)pyrimidin-4-yl)oxy)naphthalen-1-yl)ureido)benzamide] | 705
COc1cc(Nc2cc(Oc3ccc(NC(=O)Nc4cc(C(C)(C)C)cc(NS(C)(=O)=O)c4OC)c4ccccc34)ccn2)cc(C(=O)NCCN2CCCCC2)c1 [83(e), 3-((4-((4-(3-(5-(tert-butyl)-2-methoxy-3-(methylsulfonamido)phenyl)ureido)naphthalen-1-yl)oxy)pyridin-2-yl)amino)-5-methoxy-N-(2-(piperidin-1-yl)ethyl)benzamide] | 1590
CCNC(=O)c1cc(C(C)(C)C)cc(NC(=O)Nc2ccc(Oc3ccnc(Nc4cc(OC)cc(OCCOCCOCCOC)c4)n3)c3ccccc23)c1OC [Example 41, 5-(tert-Butyl)-N-ethyl-2-methoxy-3-(3-(4-((2-((3-methoxy-5-(2-(2-(2-methoxyethoxy)-ethoxy)ethoxy)phenyl)amino)pyrimidin-4-yl)oxy)naphthalen-1-yl)ureido)benzamide] | 446
C#Cc1cc(Nc2nccc(Oc3ccc(NC(=O)Nc4cc(C(C)(C)C)cc(C(=O)NC)c4OC)c4ccccc34)n2)cc(C(=O)N[C@H](C)CN2CCOCC2)c1 [Example 61, (R)-5-(tert-Butyl)-3-(3-(4-((2-((3-ethynyl-5-((1-morpholinopropan-2-yl)carbamoyl)phenyl)amino)pyrimidin-4-yl)oxy)naphthalen-1-yl)ureido)-2-methoxy-N-methylbenzamide] | 372
COc1c(NC(=O)Nc2ccc(Oc3ccnc(Nc4ccccc4)c3)c3ccccc23)cc(C(C)(C)C)cc1C(=O)N[C@@H]1CCOC1 [84(c), 3-[[4-[(2-Anilino-4-pyridyl)oxy]-1-naphthyl]carbamoylamino]-5-tert-butyl-2-methoxy-N-[(3R)-tetrahydrofuran-3-yl]benzamide] | 4950

Results, then the compound that gave them:

IC50 [nM] | SMILES
896 | COc1c(NC(=O)Nc2ccc(Oc3ccnc(Nc4ccccc4)n3)c3ccccc23)cc(C(C)(C)C)cc1C(=O)NC1COC1 [Example 78, 5-(tert-Butyl)-2-methoxy-N-(oxetan-3-yl)-3-(3-(4-((2-(phenylamino)pyrimidin-4-yl)oxy)-naphthalen-1-yl)ureido)benzamide]
182 | COc1c(NC(=O)Nc2ccc(Oc3ccnc(Nc4ccccc4)c3)c(F)c2F)cc(C(C)(C)C)cc1C(=O)NC1COC1 [Example 82, 5-(tert-Butyl)-3-(3-(2,3-difluoro-4-((2-(phenylamino)pyridin-4-yl)oxy)phenyl)ureido)-2-methoxy-N-(oxetan-3-yl)benzamide]
150 | COc1cc(Nc2nccc(Oc3ccc(NC(=O)Nc4cc(C(C)(C)C)cc(NS(C)(=O)=O)c4OC)c4ccccc34)n2)cc(OCCOCCOCCC(=O)O)c1 [Example 30, 3-(2-(2-(3-((4-((4-(3-(5-(tert-Butyl)-2-methoxy-3-(methylsulfonamido)phenyl)ureido)-naphthalen-1-yl)oxy)pyrimidin-2-yl)amino)-5-methoxyphenoxy)ethoxy)ethoxy)propanoic acid]
379 | COCCOCCOCCOCCOCCOCCOCCNC(=O)c1cc(Nc2nccc(Oc3ccc(NC(=O)Nc4cc(C(C)(C)C)cc(NS(C)(=O)=O)c4OC)c4ccccc34)n2)cc(OC)c1 [Example 40, 3-((4-((4-(3-(5-(tert-Butyl)-2-methoxy-3-(methylsulfonamido)phenyl)ureido)naphthalen-1-yl)oxy)pyrimidin-2-yl)amino)-N-(2,5,8,11,14,17,20-heptaoxadocosan-22-yl)-5-methoxy-benzamide]
437 | C#Cc1cc(Nc2nccc(Oc3ccc(NC(=O)Nc4cc(C(C)(C)C)cc(C(N)=O)c4OC)c4ccccc34)n2)cc(C(=O)NCCN2CCOCC2)c1 [85(g), 5-tert-Butyl-3-[[4-[2-[3-ethynyl-5-(2-morpholinoethylcarbamoyl)anilino]-pyrimidin-4-yl]oxy-1-naphthyl]carbamoylamino]-2-methoxy-benzamide]
878 | COCCOCCOCC[S+]([O-])c1cc(Nc2cc(Oc3ccc(NC(=O)Nc4cc(C(C)(C)C)cc(NS(C)(=O)=O)c4OC)c4ccccc34)ccn2)cc(OC)c1 (centres unmarked) [Example 85(x), 1-[5-tert-Butyl-3-(methanesulfonamido)-2-methoxyphenyl]-3-[4-[2-[3-methoxy-5-[2-[2-(2-methoxyethoxy)ethoxy]ethylsufinyl]anilino]pyridin-4-yl]oxy-1-naphthyl]urea]
